The values below come from US9255272B2, “Use of inhibitors of leukotriene B4 receptor BLT2 for treating asthma” (Korea University Research & Business Foundation, priority 2007, dated 2016).

For one series, the system named is OVA-challenged mice. Kind of series: AHR (Penh) in response to methacholine in OVA-challenged mice. To be noted: for reduction of Penh (based on area-under-the-curve calculations): methacholine 6.25-50 mg/ml, 24 h after last OVA challenge. In kind it is in vivo, mouse. As for the experimental part: Female BALB/c mice and C57BL/6 mice (7 weeks old; 18-20 g) were obtained from Orientbion Inc. (Seoungnam, Korea). Sensitization and challenge were carried out as described previously with some modification (28). Briefly, female C57BL/6 mice (7 weeks old; 18-20 g) were immunized by intraperitoneal (i.p.) injection of 200 μg ovalbumin (OVA) emulsified in 2.5 mg of adjuvant aluminum hydroperoxide gel (alum) (Pierce, Rockford, Ill.). A second i.p. injection of 20 μg OVA adsorbed onto alum (2.5 mg) was administered 10 days later. After an additional 10 days, mice were exposed to an aerosol of 1% OVA in saline for 30 min daily on 3 consecutive days. On day 25, mice were finally challenged by provocation with 10% OVA aerosol. For inhibition experiments, sense or antisense BLT2 (1.6 mg/kg) was injected intravenously 24 h and then 1 h before the 10% OVA challenge. The mice were then killed on day 27 to assess asthmatic phenotypes. Antisense BLT2 oligonucleotide (5′-[…]-3′ (SEQ ID NO: 15)), sense BLT2 oligonucleotide (5′-[…]-3′ (SEQ ID NO: 16)). […]
Airway AHR was measured in unrestrained, conscious mice 24 h after the final OVA challenge using a whole-body plethysmograph, as previously described (29). Mice were placed in a barometric plethysmographic chamber (All Medicus Co., Seoul, Korea), and baseline readings were taken and averaged for 3 min. […] Readings were taken and averaged for 3 min after each nebulization, and enhanced pause (Penh) was determined. Signals were analyzed to derive whole body flow parameters including respiratory rate, tidal volume, inspiratory time (Ti), expiratory time (Te)1. peak inspiratory flow (PIF), peak expiratory flow (PEF), and relaxation time (RT). […] Baseline Penh measurements for each animal were recorded for 3 min and averaged. Results are expressed as the percentage increase of Penh following challenge with each concentration of methacholine, where the baseline Penh (after saline challenge) is expressed as 100%. Penh values averaged for 3 min after each nebulization were evaluated. […]

Another series deals with VCAM-1. The experiment in a line: VCAM-1 expression in lung tissue (Western blot). In kind it is in vivo, mouse. As for the experimental part:
Female BALB/c mice and C57BL/6 mice (7 weeks old; 18-20 g) were obtained from Orientbion Inc. (Seoungnam, Korea). Sensitization and challenge were carried out as described previously with some modification (28). Briefly, female C57BL/6 mice (7 weeks old; 18-20 g) were immunized by intraperitoneal (i.p.) injection of 200 μg ovalbumin (OVA) emulsified in 2.5 mg of adjuvant aluminum hydroperoxide gel (alum) (Pierce, Rockford, Ill.). A second i.p. injection of 20 μg OVA adsorbed onto alum (2.5 mg) was administered 10 days later. After an additional 10 days, mice were exposed to an aerosol of 1% OVA in saline for 30 min daily on 3 consecutive days. On day 25, mice were finally challenged by provocation with 10% OVA aerosol. For inhibition experiments, sense or antisense BLT2 (1.6 mg/kg) was injected intravenously 24 h and then 1 h before the 10% OVA challenge. The mice were then killed on day 27 to assess asthmatic phenotypes. Antisense BLT2 oligonucleotide (5′-[…]-3′ (SEQ ID NO: 15)), sense BLT2 oligonucleotide (5′-[…]-3′ (SEQ ID NO: 16)).
Alternatively, BALB/c mice were sensitized on day 1 by i.p. injection of 20 μg OVA emulsified in 2.5 mg of alum (Pierce, Rockford, Ill.), followed by an identical booster injection administered on day 14. On days 21, 22 and 23 after initial sensitization, the mice were challenged for 30 min with an aerosol of 1% OVA using an ultrasonic nebulizer. LY255283 (2.5 mg/kg) or vehicle control (DMSO) was administered intravenously 1 h before 1% OVA challenge. Mice were killed on day 25, to assess asthmatic phenotypes. 2′,7′-dichorofluorescein diacetate (DCF-DA) was purchased from Molecular Probes (Eugene, Oreg.). BSA and DMSO were from Sigma-Aldrich (St. Louis, Mo.). Acetyl-methacholine chloride was purchased from Sigma-Aldrich (St. Louis, Mo.). All other chemicals were from standard sources and were of molecular biology grade or higher. […]

With `CCc1cc(C(C)=O)c(O)cc1OCCCCCC(C)(C)c1nnn[nH]1` [LY255283, 1-[5-ethyl-2-hydroxy-4-[[6-methyl-6-(1H-tetrazol-5-yl)heptyl]oxy]phenyl]-ethanone, reference compound], in the series with OVA-challenged mice (LY255283 2.5 mg/kg i.v.), the “reduction of Penh (based on area-under-the-curve calculations)” value is −70%. Further, the “suppression of OVA-induced VCAM-1 induction in lung tissue” value in the series on VCAM-1 (LY255283 2.5 mg/kg 1 hr before 1% OVA challenge) is given as −60%.

As to “antisense BLT2: Antisense BLT2 oligonucleotide 5′-GCTCAGTAGTGTCTCATTCC-3′ (SEQ ID NO: 15) (listed as DNA, chemistry not fully specified)”, the “reduction of Penh (based on area-under-the-curve calculations)” value with OVA-challenged mice (antisense BLT2 1.6 mg/kg i.v.) is reported as −70%. For the same molecule, the “suppression of OVA-induced VCAM-1 induction in lung tissue” value in the series with VCAM-1 (antisense BLT2 1.6 mg/kg) is reported as −60%.

With “antisense Rac: phosphorothioate 17-mer to the 5′ end of murine Rac mRNA, 5′-CACTTGATGGCCTGCAT-3′ (SEQ ID NO: 22) (listed as DNA, chemistry not fully specified)”, the “AHR after allergen challenge” value in the series on OVA-challenged mice (mouse model system for asthma, antisense oligomers to Rac1) is given as “remarkably reduced”. In addition, the “OVA-induced VCAM-1 induction in lung tissue” value with VCAM-1 (antisense Rac 1.25 mg/kg, tail vein) is listed as “suppressed this effect”.
